The target in this assay is T1, human factor Xa (Homo sapiens, UniProt P00742).
T1 construct: human factor Xa; purchased Enzyme Research Laboratories, Inc; South Bend, Ind
T1 sequence (P00742 235-488 limits assumed): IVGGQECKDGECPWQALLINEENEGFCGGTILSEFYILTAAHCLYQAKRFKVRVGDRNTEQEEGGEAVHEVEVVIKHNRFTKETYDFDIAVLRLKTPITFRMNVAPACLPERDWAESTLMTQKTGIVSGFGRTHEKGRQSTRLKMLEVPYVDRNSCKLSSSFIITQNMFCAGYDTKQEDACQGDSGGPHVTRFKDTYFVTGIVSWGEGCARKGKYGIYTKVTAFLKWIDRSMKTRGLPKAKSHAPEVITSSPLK
T1 sequence (P00742 41-179 partner limits assumed): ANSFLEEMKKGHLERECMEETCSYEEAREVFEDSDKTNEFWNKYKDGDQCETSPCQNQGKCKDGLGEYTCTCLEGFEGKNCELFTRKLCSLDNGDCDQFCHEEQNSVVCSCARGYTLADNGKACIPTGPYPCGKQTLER
Briefly: Factor Xa assay (chromogenic, inhibition of factor Xa activity). The class given is biochemical. The following applies: purified human factor Xa 0.5 nM, chromogenic substrate S-2765 140 μM, 25° C., pH 7.8; Ki calculated from IC50 corrected for substrate competition; read-out: Ki (inhibition constant) for the inhibition of factor Xa. As for the experimental part: Purified enzymes were used in chromogenic assays.
The assay was performed by pre-incubating the compound of formula I plus enzyme for 10 min. Then the assay was initiated by adding substrate to obtain a final volume of 100 μl. The initial velocity of chromogenic substrate hydrolysis was measured by the change in absorbance at 405 nm using a Bio-tek Instruments kinetic plate reader (Ceres UV900HDi) at 25° C. during the linear portion of the time course (usually 1.5 min after addition of substrate).
For `CC(C)N1CCC(NC(=O)c2cc3cc(C(=O)N4CC(O)C4)ccc3n2Cc2cc(-c3ccc(Cl)s3)on2)CC1` [Example 1, 1-[5-(5-Chloro-thiophen-2-yl)-isoxazol-3-ylmethyl]-5-(3-hydroxy-azetidine-1-carbonyl)-1H-indole-2-carboxylic acid (1-isopropyl-piperidin-4-yl)-amide], the Ki was 57 nM. Consider `CC(C)N1CCC(NC(=O)c2cc3cc(C(=O)N4CCCC4CO)ccc3n2Cc2cc(-c3ccc(Cl)s3)on2)CC1` (stereo not drawn) [Example 2, 1-[5-(5-Chloro-thiophen-2-yl)-isoxazol-3-ylmethyl]-5-(2-hydroxymethyl-pyrrolidine-1-carbonyl)-1H-indole-2-carboxylic acid (1-isopropyl-piperidin-4-yl)-amide], for which the Ki is 113 nM. Under `CC(C)N1CCC(NC(=O)c2cc3cc(C(=O)OCC4COC(=O)O4)ccc3n2Cc2cc(-c3ccc(Cl)s3)on2)CC1` (stereo not drawn) [Example 3, 1-[5-(5-Chloro-thiophen-2-yl)-isoxazol-3-ylmethyl]-2-(1-isopropyl-piperidin-4-ylcarbamoyl)-1H-indole-5-carboxylic acid 2-oxo-[1,3]dioxolan-4-ylmethyl ester] stands 14 nM; under `CC(C)N1CCC(NC(=O)c2cc3cc(C(=O)N4CCCOCC4)ccc3n2CC(=O)Nc2ccc(Cl)cn2)CC1` [Example 4, 1-[(5-Chloro-pyridin-2-ylcarbamoyl)-methyl]-5-([1,4]oxazepane-4-carbonyl)-1H-indole-2-carboxylic acid (1-isopropyl-piperidin-4-yl)-amide], 22 nM; under `COCCOC(=O)OC(C)OC(=O)c1ccc2c(c1)cc(C(=O)NC1CCN(C(C)C)CC1)n2CC(=O)Nc1ccc(Cl)cn1` (stereo not drawn) [Example 5, 1-[(5-Chloro-pyridin-2-ylcarbamoyl)-methyl]-2-(1-isopropyl-piperidin-4-ylcarbamoyl)-1H-indole-5-carboxylic acid 1-(2-methoxy-ethoxycarbonyloxy)-ethyl ester], 9 nM. In the case of `CC(C)N1CCC(NC(=O)c2cc3cc(C(=O)N4CCCOCC4)ccc3n2CC(=O)Nc2ccc(Cl)nc2)CC1` [Example 6, 1-[(6-Chloro-pyridin-3-ylcarbamoyl)-methyl]-5-([1,4]oxazepane-4-carbonyl)-1H-indole-2-carboxylic acid (1-isopropyl-piperidin-4-yl)-amide] it was 375 nM; in that of `CC(C)N1CCC(NC(=O)c2cc3c(C(=O)N4CCCOCC4)cccc3n2CC(=O)Nc2ccc(Cl)cn2)CC1` [Example 7, 1-[(5-Chloro-pyridin-2-ylcarbamoyl)-methyl]-4-([1,4]oxazepane-4-carbonyl)-1H-indole-2-carboxylic acid (1-isopropyl-piperidin-4-yl)-amide], 3 nM; in that of `COc1cccc(Cn2c(C(=O)NC3CCN(C(C)C)CC3)cc3c(C(=O)N4CC(OC)C4)cccc32)c1` [Example 8, 4-(3-Methoxy-azetidine-1-carbonyl)-1-(3-methoxy-benzyl)-1H-indole-2-carboxylic acid (1-isopropyl-piperidin-4-yl)-amide], 133 nM. In the case of `COc1cccc(Cn2c(C(=O)NC3CCN(C(C)C)CC3)cc3c(C(=O)N4CC(O)C4)cccc32)c1` [Example 9, 4-(3-Hydroxy-azetidine-1-carbonyl)-1-(3-methoxy-benzyl)-1H-indole-2-carboxylic acid (1-isopropyl-piperidin-4-yl)-amide] it was 124 nM; in that of `CC(C)ONC(=O)c1ccc2c(c1)cc(C(=O)NC1CCN(C(C)C)CC1)n2Cc1cc(-c2ccc(Cl)s2)on1` [Example 10, 1-[5-(5-Chloro-thiophen-2-yl)-isoxazol-3-ylmethyl]-1H-indole-2,5-dicarboxylic acid 5-(isopropoxy-amide) 2-[(1-isopropyl-piperidin-4-yl)-amide]], 24 nM.

`CC(C)N1CCC(NC(=O)c2cc3cc(C(=O)N4CC(O)C4)ccc3n2CC(=O)Nc2ccc(Cl)cn2)CC1` [Example 11, 1-[(5-Chloro-pyridin-2-ylcarbamoyl)-methyl]-5-(3-hydroxy-azetidine-1-carbonyl)-1H-indole-2-carboxylic acid (1-isopropyl-piperidin-4-yl)-amide]: the Ki was 8 nM. For the compound `CC(C)N1CCC(NC(=O)c2cc3c(C(=O)N4CC(O)C4)cccc3n2Cc2cc(-c3ccc(Cl)s3)on2)CC1` [Example 12, 1-[5-(5-Chloro-thiophen-2-yl)-isoxazol-3-ylmethyl]-4-(3-hydroxy-azetidine-1-carbonyl)-1H-indole-2-carboxylic acid (1-isopropyl-piperidin-4-yl)-amide], the Ki is 14 nM. As for `COCCOC(=O)OC(C)OC(=O)c1cccc2c1cc(C(=O)NC1CCN(C(C)C)CC1)n2CC(=O)Nc1ccc(Cl)cn1` (stereo not drawn) [Example 13, 1-[(5-Chloro-pyridin-2-ylcarbamoyl)-methyl]-2-(1-isopropyl-piperidin-4-ylcarbamoyl)-1H-indole-4-carboxylic acid 1-(2-methoxy-ethoxycarbonyloxy)-ethyl ester], the Ki is 2 nM. In the case of `Cc1oc(=O)oc1COC(=O)c1cccc2c1cc(C(=O)NC1CCN(C(C)C)CC1)n2Cc1cc(-c2ccc(Cl)s2)on1` [Example 14, 1-[5-(5-Chloro-thiophen-2-yl)-isoxazol-3-ylmethyl]-2-(1-isopropyl-piperidin-4-ylcarbamoyl)-1H-indole-4-carboxylic acid 5-methyl-2-oxo-[1,3]dioxol-4-ylmethyl ester] it was 1 nM. In the case of `Cc1oc(=O)oc1COC(=O)c1ccc2c(c1)cc(C(=O)NC1CCN(C(C)C)CC1)n2Cc1cc(-c2ccc(Cl)s2)on1` [Example 15, 1-[5-(5-Chloro-thiophen-2-yl)-isoxazol-3-ylmethyl]-2-(1-isopropyl-piperidin-4-ylcarbamoyl)-1H-indole-5-carboxylic acid 5-methyl-2-oxo-[1,3]dioxol-4-ylmethyl ester], the inhibition constant (Ki) is 11 nM.
